Assay results published in patent US10766865B2, “PKM2 modulators and methods for their use” (TOLERO PHARMACEUTICALS, INC., priority 2012, dated 2020).
Read-outs that look alike come from different tables or passages of the source.

Assays:
PKM2 [1] = molecular target: T1, PKM2 (Homo sapiens, UniProt P14618); test: PKM2 Biochemical Assay; conditions: for Max. Resp.: % maximum response in a biochemical assay as compared with Fructose 1,6-bisphosphate; for Emax: read-out: % FBP (extent of maximal activation, relative to FBP); for Maximal PKM2 activity: relative to activity in DMSO controls (normalized to 100%), FIG. 1B
Target sequence in this assay (P14618 whole entry): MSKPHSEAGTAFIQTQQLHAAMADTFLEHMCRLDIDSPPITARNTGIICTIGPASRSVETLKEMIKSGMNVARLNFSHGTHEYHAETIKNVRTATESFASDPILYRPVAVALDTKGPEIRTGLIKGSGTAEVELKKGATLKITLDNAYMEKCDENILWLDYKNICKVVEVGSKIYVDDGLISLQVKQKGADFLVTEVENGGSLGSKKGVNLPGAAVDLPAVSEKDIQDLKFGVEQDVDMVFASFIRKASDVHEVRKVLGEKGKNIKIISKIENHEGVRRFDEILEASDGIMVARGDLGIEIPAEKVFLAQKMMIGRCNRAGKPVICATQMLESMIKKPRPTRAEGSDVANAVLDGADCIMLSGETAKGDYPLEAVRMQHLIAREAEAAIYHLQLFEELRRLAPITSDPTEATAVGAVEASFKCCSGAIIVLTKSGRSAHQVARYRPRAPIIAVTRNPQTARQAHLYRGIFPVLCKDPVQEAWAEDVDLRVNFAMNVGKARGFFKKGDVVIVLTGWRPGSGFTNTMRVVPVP

PC3 cells = test: Cell Proliferation Assay, PC3; type: cell-based; conditions: Homo sapiens, PC-3; PC3, BME media lacking nonessential amino acids, 72 hours, ATPlite; read-out: Percent viability (EC50), Average
Experimental: (§1) Cells were seeded at 5000 cells per well (in 96-well plate) in BME media lacking nonessential amino acids+5% dialyzed serum. After 18 hours, DMSO or compound in 0.1% final concentration DMSO was added.
(§2) Percent viability (EC50) of A549 and PC3 cells was tested against certain exemplary compounds according to the above general procedures.

A549 cells = test: Cell Proliferation Assay, A549; type: cell-based; conditions: Homo sapiens; A549, BME media lacking nonessential amino acids, 72 hours, ATPlite; read-out: Percent viability (EC50), Average
Experimental: as §1, §2

PKM2 [2] = molecular target: T1, PKM2; test: Cell-Based Pyruvate Kinase Activity Assay, NCI-H1299; parameters: host or cells: A549 or NCI-H1299 lung cancer cells; conditions: NCI-H1299, 30 minutes with compound, n = 4; read-out: Cellular PKM2 activation EC50
Experimental: (§3) Cell-Based Pyruvate Kinase Activity Assay
(§4) A549 or NCI-H1299 lung cancer cells were plated at 20,000 cells per well (96-well plate) in MEM media plus 10% FBS, with no additional glutamine or pyruvate. Following overnight incubation, cells were washed with PBS followed by 4 hour incubation in MEM media. Compounds were added to the cells in 1% final concentration DMSO. After 30 minutes, cells were lysed, and pyruvate kinase activity in lysates was determined by Pyruvate Kinase Activity Assay (BioVision, Milpitas, Calif.). Maximum velocity values were calculated from the kinetic data, and AC50 values were determined using Prism GraphPad Software (La Jolla, Calif.). Compound washout experiments were as described above, except after a 30 minute incubation with Example 244 (469 nM), the cells were washed with PBS followed by the addition of MEM media for the indicated time period, lysed and pyruvate kinase activity determined. Results are tabulated in Table 3 and presented graphically in FIGS. 6A and 6B.
Target sequence in this assay (P14618 2-531 limits assumed): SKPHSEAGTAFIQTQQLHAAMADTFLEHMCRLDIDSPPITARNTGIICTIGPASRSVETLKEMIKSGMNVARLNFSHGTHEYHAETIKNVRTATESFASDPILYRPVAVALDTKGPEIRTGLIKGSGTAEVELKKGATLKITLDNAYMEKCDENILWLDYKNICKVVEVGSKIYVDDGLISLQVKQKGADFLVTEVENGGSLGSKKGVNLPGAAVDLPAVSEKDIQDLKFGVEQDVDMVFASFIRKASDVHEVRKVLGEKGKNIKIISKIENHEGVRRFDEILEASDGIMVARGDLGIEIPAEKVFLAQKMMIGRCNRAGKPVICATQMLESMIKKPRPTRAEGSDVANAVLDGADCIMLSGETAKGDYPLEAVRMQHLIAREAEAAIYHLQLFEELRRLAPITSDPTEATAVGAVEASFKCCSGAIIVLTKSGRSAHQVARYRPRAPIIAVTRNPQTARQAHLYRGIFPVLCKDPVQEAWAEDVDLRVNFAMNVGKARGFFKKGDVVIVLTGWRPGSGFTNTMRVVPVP

PKM2 [3] = molecular target: T1, PKM2; test: Cell-Based Pyruvate Kinase Activity Assay, A549; parameters: host or cells: A549 or NCI-H1299 lung cancer cells; conditions: A549, 30 minutes with compound, n = 4; read-out: Cellular PKM2 activation EC50
Experimental: as §3, §4
Target sequence in this assay (P14618 2-531 limits assumed): as above

[4] = read-out: AC50 (concentration of half-maximal PKM2 activation), Table 2, n = 6 to 10

Structure (SMILES) | Max. Resp. (PKM2 [1]) [%] | EC50 (PC3 cells) [nM] | EC50 (A549 cells) [nM] | other results
CO[C@H]1CC[C@H](N(Cc2ccccc2F)C(=O)c2cc(C(F)(F)F)n[nH]2)CC1 [Example 47, N-(2-FLUOROBENZYL)-N-(TRANS-4-METHOXYCYCLOHEXYL)-3-(TRIFLUOROMETHYL)-1H-PYRAZOLE-5-CARBOXAMIDE] | 89 | 383 | 188 | 
CO[C@H]1CC[C@H](N(Cc2cccc(N)c2)C(=O)c2cc(C(F)(F)F)n[nH]2)CC1 [Example 54] | 93 | 193 | 102 | 
O=C(c1cc(C(F)(F)F)n[nH]1)N(CCC1CCS(=O)(=O)C1)Cc1ccccc1Cl (stereo not drawn) [Example 62, N-(2-chlorobenzyl)-N-(2-(1,1-dioxidotetrahydrothiophen-3-yl)ethyl)-3-(trifluoromethyl)-1H-pyrazole-5-carboxamide] | 105 | 166 | 108 | 
O=C(c1cc(C(F)(F)F)n[nH]1)N(CCC1CCS(=O)(=O)CC1)Cc1ccccc1Cl [Example 75, N-(2-chlorobenzyl)-N-(2-(1,1-dioxidotetrahydro-2H-thiopyran-4-yl)ethyl)-3-(trifluoromethyl)-1H-pyrazole-5-carboxamide] | 102 | 223 | 148 | 
Nc1cccc(F)c1CN(CCC1CCS(=O)(=O)CC1)C(=O)c1cc(C(F)(F)F)n[nH]1 [Example 91, N-(2-amino-6-fluorobenzyl)-N-(2-(1,1-dioxidotetrahydro-2H-thiopyran-4-yl)ethyl)-3-(trifluoromethyl)-1H-pyrazole-5-carboxamide] |  | 47.3 | 20.3 | 
CCCN(CC)CCN(Cc1c(N)cccc1Cl)C(=O)c1cc(C(F)(F)F)n[nH]1 [Example 223, N-(2-chloro-6-aminobenzyl)-N-(2-(ethyl-propylamino)ethyl)-3-(trifluoromethyl)-1H-pyrazole-5-carboxamide] | 100 | 54 | 33.5 | 
O=C(c1cc(C(F)(F)F)n[nH]1)N(Cc1ccccc1Cl)CC1CCN1 (stereo not drawn) [Example 227, N-(2-chlorobenzyl)-N-((azetidin-2-yl)methyl)-3-(trifluoromethyl)-1H-pyrazole-5-carboxamide] | 100 | 1310 | 928 | 
Nc1cccc(Cl)c1CN(CCN1CCC(O)C1)C(=O)c1cc(C(F)(F)F)n[nH]1 (stereo not drawn) [Example 234, N-(2-amino-6-chlorobenzyl)-3-(trifluoromethyl)-N-(2-(3-hydroxypyrrolidin-1-yl)ethyl)-1H-pyrazole-5-carboxamide] | 100 | 92.4 | 45.8 | 
Nc1cccc(Cl)c1CN(CCN1CCCC(F)C1)C(=O)c1cc(C(F)(F)F)n[nH]1 (stereo not drawn) [Example 236, N-(2-amino-6-chlorobenzyl)-3-(trifluoromethyl)-N-(2-(3-fluoropiperidin-1-yl)ethyl)-1H-pyrazole-5-carboxamide] | 73 | 33 | 8.1 | 
Nc1cccc(Cl)c1CN(CCN1CCCOCC1)C(=O)c1cc(C(F)(F)F)n[nH]1 [Example 239, N-(2-(1,4-oxazepan-4-yl)ethyl)-N-(2-amino-6-chlorobenzyl)-3-(trifluoromethyl)-1H-pyrazole-5-carboxamide] | 100 | 129 | 73.1 | 
O=C(c1cc(Cl)n[nH]1)N(Cc1ccc(O)cc1F)CC1CCC1 [Example 244, N-(2-fluoro-4-hydroxybenzyl)-3-chloro-N-(cyclobutylmethyl)-1H-pyrazole-5-carboxamide] |  |  |  | Emax (PKM2 [1]): 107 ± 10%; AC50 (PKM2 [1]; [4]): 62 ± 23 nM; Maximal PKM2 activity (PKM2 [1]): approximately 600%; EC50 (PKM2 [2]): 300 ± 70 nM; EC50 (PKM2 [3]): 450 ± 180 nM
O=C(c1cc(C2CC2)n[nH]1)N(Cc1ccc(O)cc1F)CC1CCC1 [Example 246] | 85 |  |  | AC50 (PKM2 [1]; read-out: PKM2 AC50, 2 nM PKM2, 75 μM ADP, 15 μM PEP, Kinase Glo): 92 nM
O=C(COP(=O)(O)O)[C@@H](O)[C@H](O)[C@H](O)COP(=O)(O)O [FBP, fructose-1,6-bisphosphate, reference compound] |  |  |  | Emax (PKM2 [1]): 100%; AC50 (PKM2 [1]; [4]): 23 ± 8 nM; Maximal PKM2 activity (PKM2 [1]): approximately 600%
